Test results from ChEMBL document CHEMBL1143091, “Synthesis and SAR studies of biaryloxy-substituted triazoles as antifungal agents” (2008).
Values after ≈ are worked out from the molar mass of the structure shown.

Legend:
Type in all cases: functional
[1] = test system: Trichophyton rubrum; test: Antimicrobial activity against Trichophyton rubrum isolates
[2] = test system: Cryptococcus neoformans; test: Antimicrobial activity against Cryptococcus neoformans ATCC 32609
[3] = test system: Candida parapsilosis; test: Antimicrobial activity against […] isolates; settings: Lodderomyces parapsilosis
[4] = test system: Aspergillus fumigatus; test: Antimicrobial activity against Aspergillus fumigatus isolates
[5] = test system: Candida tropicalis; test: Antimicrobial activity against Candida tropicalis isolates
[6] = test system: Candida albicans; test: Antimicrobial activity against Candida albicans ATCC 76615
[7] = test system: Nannizzia gypsea; test: Antimicrobial activity against Microsporum gypseum isolates
[8] = test system: Fonsecaea compacta; test: Antimicrobial activity against Fonsecaea compacta isolates

MIC [1]: 1 µg/mL (≈ 2.22 µM) | MIC [2]: 1 µg/mL (≈ 2.22 µM) | MIC [3]: 0.0039 µg/mL (≈ 0.00866 µM) | MIC [4]: > 64 µg/mL | MIC [5]: 0.0156 µg/mL (≈ 0.0346 µM) | MIC [6]: 0.0039 µg/mL (≈ 0.00866 µM) | MIC [7]: 1 µg/mL (≈ 2.22 µM) | MIC [8]: 1 µg/mL (≈ 2.22 µM)
SMILES: ON=Cc1ccc(-c2ccc(OCC(O)(Cn3cncn3)c3ccc(F)cc3F)cc2)cc1 (stereo not drawn)
